Data reported in article PMC12703938, “Positive modulation of sigma-1 receptor: a new weapon to mitigate disease progression in amyotrophic lateral sclerosis” (Translational Neurodegeneration, 2025).
Where a name gives a salt, the structure may show the parent alone.

System: T1, sigma-1 receptor (S1R)
T1 construct: gene SIGMAR1; S1R-GFP expressed in CHO cells; with BiP
Assay: S1R/BiP dissociation assay in S1R-GFP CHO cells (GFP-Trap, BiP ELISA)
Assay type: cell-based

Row | SMILES | IC50 [nM]
1 | C[C@]12CC[C@H](O)CC1=CC[C@@H]1[C@@H]2CC[C@]2(C)C(=O)CC[C@@H]12 [DHEA] | 1170
